In brackets after ≈: the same amount, converted by molar mass. Where two headings read alike, the source gives them in different places.
What was measured:
hESCs = assay: light microscopy of hESC colonies cultured on murine feeder cells, hESC-selective killing; type: cell-based, human; settings: for selective killing of hESCs (FIG. 4): 24 hr incubation; for lowest concentration at which cytotoxic effects were seen: 2.5 μg/mL = 8 μM; for killing of hESCs (light microscopic images, FIG. 2): JC010 12 and 24 hours, JC011 24 hours; for cytotoxic effect on undifferentiated hESCs (summary) / specificity (hESCs versus feeder cells), compared among JC010, JC011 and JC017: summary of the experimental data
Method: (§1) Using the above cell viability assays, various cell types including hESCs, differentiated hESCs, human primary astrocytes and murine feeder cells (mouse embryonic fibroblasts (MEFs)) were treated with one of the analogues synthesized in Examples 1 to 3. The cells were then visualized with 5×, 10×, 20× and 40× objectives using dark field, phase optics and fluorescence microscopy with an Olympus IX51 inverted microscope or Leica MZ8 stereomicroscope.
(§2) In the phase contrast optics images (FIGS. 1A and 1B), the hESCs are seen as dark colonies surrounded by the murine feeder cells (mouse embryonic fibroblasts (MEFs)). In the dark field images (FIGS. 1C and 1D), the hESCs are seen as bright colonies surrounded by the murine feeder cells (mouse embryonic fibroblasts (MEFs)).

[1] = test system: normal human primary astrocytes; assay: resazurin cell viability assay on normal human primary astrocytes (FIG. 8B); type: cell-based
undifferentiated hESCs = assay: dose response curves on undifferentiated hESCs (FIG. 11A); type: cell-based, human; settings: from dose response curve FIG. 11A
Excerpt: In other words, JC010 and JC011 were very cytotoxic against undifferentiated hESCs. It can also be seen from the dose response curve in FIG. 11B, that both analogues were not cytotoxic to differentiated cells.

hESC = assay: Trypan Blue cell viability assay on hESC; type: cell-based, human; settings: 40 μM; 24 hours (JC011 also 48 hr), compared to untreated hESC
Method: The images on the left (A and B) show untreated hESC while the images on the right (C and D) show hESC treated with 40 μM of JC010 for 24 hours. The arrows indicate trypan blue positive dead cells.
The Trypan Blue cell viability assay was conducted by first diluting 10 μL of a cell suspension with 10 μL of 0.4% w/v Trypan Blue solution. The cell suspension and Trypan Blue solution were mixed using a pipette, after which the mixture was incubated at room temperature for 10 minutes. 20 μL of the mixture was then loaded into a charged hemocytometer for visualization under 10× and 20× magnification phase optics microscopy. Cells which stain blue are dead cells.

[2] = test system: undifferentiated hESCs (H1 cells); assay: resazurin cell viability assay on undifferentiated H1 hESCs (FIG. 7A); type: cell-based, human; settings: 40 μM, 24 hr and 48 hr; versus JC005, capsaicin (CAP) and DMSO
Method: (§3) The hESCs used are undifferentiated H1 cells, while the murine feeder cells (mouse embryonic fibroblasts (MEFs)) used are J28 C57/BL6J cells. The columns represent the means of 4 experiments while the bars represent relative fluorescence ±s.d. The control was untreated hESCs and untreated murine feeder cells (mouse embryonic fibroblasts (MEFs)) with a final DMSO concentration of 1% v/v while the final sample concentration was 40 μM. * denotes P<0.01, Student's T-test, 2-tail.
(§4) The resazurin cell viability assay was conducted on hESC, differentiated hESCs, osteoblasts, murine feeder cells (mouse embryonic fibroblasts (MEFs)), IPSCs derived from foreskin (IPS-DF19-9 and IPS-foreskin) and CSCs (colon CSCs and breast CSCs). The assay is based on the use of an indicator dye resazurin to measure the metabolic capacity of a cell. […]
(§5) In wells A12-H12, 200 μl/well DMSO were added to provide the Blank reading.
(§6) The percentage of the resazurin activity was calculated based on the following equation:
(§7) The percentage of cell death was calculated based on the following equation: % cell death=100−% activity (Eq. 2) […]
(§8) […] The plates were further incubated at 37° C. for 2 h, after which the plate was read at an excitation wavelength of 535 nm and an emission wavelength of 590 nm with a Tecan Infinite 200 microplate reader.

[3] = test system: breast CSC cell line (Celprogen Cat#36102-29P-T25); assay: resazurin cell viability assay on breast CSC cell line; type: cell-based; settings: 12.5 μg/mL, FIG. 14
[4] = test system: murine feeder cells (mouse embryonic fibroblasts (MEFs)), J28 C57/BL6J cells; assay: resazurin cell viability assay on murine feeder cells (FIG. 7B); type: cell-based; settings: 40 μM, 24 hr and 48 hr; versus JC005, capsaicin (CAP) and DMSO
Method: as §3, §4, §5, §6, §7, §8

[5] = test system: differentiated hESCs (H1); type: cell-based
Method: (§9) The resazurin cell viability assay was conducted on hESC, differentiated hESCs, osteoblasts, murine feeder cells (mouse embryonic fibroblasts (MEFs)), IPSCs derived from foreskin (IPS-DF19-9 and IPS-foreskin) and CSCs (colon CSCs and breast CSCs). The assay is based on the use of an indicator dye resazurin to measure the metabolic capacity of a cell. A viable cell would retain the ability to reduce resazurin to resorufin, which is a highly fluorescent compound.
as §6
(§10) The percentage of cell death was calculated based on the following equation: % cell death=100−% activity (Eq. 2)
(§11) The cells were plated in a 96-well multi-well plate 5 days before the assay. 200 μL of medium containing 10^5/mL cells (i.e. 2×10^4 cells) were used for each well.
The cells were then treated with 12.5 μg/mL of the capsaicin analogues. The final concentration of DMSO used as control was 1% v/v.
[…] The media was then removed from the wells and 100 μL of PBS buffer was added to each well. 20 μL of resazurin was added to each well to give a final resazurin concentration of 8 μg/mL. The plates were further incubated at 37° C. for 2 h, after which the plate was read at an excitation wavelength of 535 nm and an emission wavelength of 590 nm with a Tecan Infinite 200 microplate reader.
bGFG is a critical growth factor that maintains the hESCs in the undifferentiated state. Removal or withdrawal of bGFG induces hESCs to undergo differentiation.

IPS-DF19-9 cells = assay: resazurin cell viability assay on IPS-DF19-9 cells; type: cell-based; settings: 12 μg/mL, 16-hour exposure
Method: as §9, §6, §10, §11
(§12) The cells were then incubated at 37° C. for about 16 h overnight in 5% CO2. The media was then removed from the wells and 100 μL of PBS buffer was added to each well. 20 μL of resazurin was added to each well to give a final resazurin concentration of 8 μg/mL. The plates were further incubated at 37° C. for 2 h, after which the plate was read at an excitation wavelength of 535 nm and an emission wavelength of 590 nm with a Tecan Infinite 200 microplate reader. […]

Wicell H1 cells = assay: dichlorofluorescin diacetate (DCFH-DA) analysis of reactive oxygen species; type: cell-based, human; settings: 12.5 μg/mL, 3 hr
Method: Live adherent cells were washed with PBS solution. DCHF-DA solution was then added to the cells in PBS solution at a final working concentration of 10 μM. The mixture was then incubated at room temperature for 5 minutes, and visualized under a fluorescence microscope with FITC filters. Bright green fluorescent cells are indicative of cells with a high content of reactive oxygen species (ROS).

IPS-foreskin cells = assay: resazurin cell viability assay on IPS-foreskin cells; type: cell-based; settings: 12 μg/mL, 16-hour exposure
Method: as §9, §6, §10, §11, §12

[6] = test system: colon CSC cell line (Celprogen Cat#36112-39P-T25); settings: 12.5 μg/mL, FIG. 13
[7] = test system: murine feeder cells (mouse embryonic fibroblasts (MEFs)); assay: light microscopy of murine feeder cells co-cultured with hESCs; type: cell-based; settings: summary of the experimental data
Method: as §1, §2

CSCs = assay: cytotoxic effect on CSCs, summary over colon and breast CSC lines; type: cell-based; settings: summary of the experimental data
Method: Seven analogues having different side chain lengths (JC010, JC011, JC017, JC040, JC048, JC049 and JC050) were tested for their cytotoxic effect on CSCs using the resazurin cell viability assay. Two CSC cell lines were used, a colon CSC cell line (Celprogen Cat#36112-39P-T25) and a breast CSC cell line (Celprogen Cat#36102-29P-T25).

[8] = comparison value, source not given; cited from earlier work

CCCCCCCCC(=O)NCc1ccc(OC)c(O)c1 [JC005]
cell death of hESCs (BGO1v) (hESC cell line BGO1v; 40 μM, FIG. 8A): not cytotoxic | selective killing of hESCs (FIG. 4) (hESCs; 12.5 μg/mL (40 μM)): No such killing effect | cell death of normal human primary astrocytes ([1]; 40 μM, FIG. 8B): not cytotoxic

CCCCCCCCNC(=O)NCc1ccc(O)c(O)c1 [JC010]
IC50 (undifferentiated hESCs; Homo sapiens): ~2.5 µg/mL (≈ 8.49 µM) | killing of hESC in Trypan Blue assay (FIGS. 5 and 6) (hESC): wide spread killing of hESC | relative fluorescence of treated undifferentiated hESCs (H1 cells) [2]: significantly lower | cell death of hESCs (BGO1v) (hESC cell line BGO1v): high percentages of cell death | cell death, breast CSC cell line [3]: about 15% | selective killing of hESCs (FIG. 4) (hESCs; 2.5 μg/mL (8 μM)): selectively killed | lowest concentration at which cytotoxic effects were seen (hESCs): 2.5 µg/mL | selective killing of hESCs (FIG. 4) (hESCs; 12.5 μg/mL (40 μM)): selectively killed | killing of hESCs (light microscopic images, FIG. 2) (hESCs; 40 μM): selective and rapid killing of hESCs | cytotoxic effect on undifferentiated hESCs (summary) (hESCs): particularly high cytotoxic effect | relative fluorescence of treated murine feeder cells [4]: not significantly different | cytotoxic effect on differentiated cells (summary) [5]: relatively low | cytotoxicity to differentiated cells (dose response curve) [5]: not cytotoxic | cell death of normal human primary astrocytes [1]: low percentages of cell death

CCCCCCCCC(=O)NCc1ccc(O)c(O)c1 [JC011]
IC50 (in words) (undifferentiated hESCs): at the nanogram level | killing of hESC in Trypan Blue assay (FIGS. 5 and 6) (hESC): wide spread killing of hESC | IPS-DF19-9 cells killed compared to the control (IPS-DF19-9 cells): about 67% | IPS-DF19-9 cells remained alive (IPS-DF19-9 cells): 33% | relative fluorescence of treated undifferentiated hESCs (H1 cells) [2]: significantly lower | cell death of hESCs (BGO1v) (hESC cell line BGO1v): high percentages of cell death | cell death, breast CSC cell line [3]: about 15% | ROS content compared to untreated cells (Wicell H1 cells): decreased significantly | selective killing of hESCs (FIG. 4) (hESCs; 2.5 μg/mL (8 μM)): selectively killed | lowest concentration at which cytotoxic effects were seen (hESCs): 2.5 µg/mL | selective killing of hESCs (FIG. 4) (hESCs; 12.5 μg/mL (40 μM)): selectively killed | killing of hESCs (light microscopic images, FIG. 2) (hESCs; 40 μM): selective and rapid killing of hESCs | cytotoxic effect on undifferentiated hESCs (summary) (hESCs): particularly high cytotoxic effect | specificity (hESCs versus feeder cells), compared among JC010, JC011 and JC017 (hESCs): highest specificity | relative fluorescence of treated murine feeder cells [4]: not significantly different | cytotoxic effect on differentiated cells (summary) [5]: relatively low | cytotoxicity to differentiated cells (dose response curve) [5]: not cytotoxic | killing of differentiated hESCs (relative fluorescence versus control) ([5]; 40 μM, 24 hr, bGFG withdrawn, FIG. 9): did not kill differentiated hESCs | cell death of normal human primary astrocytes [1]: low percentages of cell death | IPS-foreskin cells killed compared to the control (IPS-foreskin cells): about 62% | IPS-foreskin cells remained alive (IPS-foreskin cells): 38%

CCCCCCNC(=O)NCc1ccc(O)c(O)c1 [JC017]
cell death of hESCs (BGO1v) (hESC cell line BGO1v): high percentages of cell death | cell death, colon CSC cell line [6]: 15-33% | cell death, breast CSC cell line [3]: about 15% | killing of feeder cells (summary) [7]: some feeder cells were also killed | killing effect on hESCs (light microscopic images, FIG. 3) (hESCs; 40 μM, 12 hours, compared to FIG. 2): not as selective nor as potent as the effect of the analogues JC010 and JC011 | cytotoxic effect on undifferentiated hESCs (summary) (hESCs): particularly high cytotoxic effect | specificity (hESCs versus feeder cells), compared among JC010, JC011 and JC017 (hESCs): lowest specificity | cell death of normal human primary astrocytes [1]: low percentages of cell death

CCCCCCNC(=O)Cc1cc(O)ccc1O [JC025]
selective cytotoxic activity towards undifferentiated or dedifferentiated stem cells (hESC cell line BGO1v): did not exhibit any selective cytotoxic activity

CCCCCCCCNC(=O)Cc1cc(O)ccc1O [JC026]
selective cytotoxic activity towards undifferentiated or dedifferentiated stem cells (hESC cell line BGO1v): did not exhibit any selective cytotoxic activity

CCCCCCCCCC(=O)NCc1ccc(O)c(O)c1 [JC040]
cytotoxic effect on CSCs (summary) (CSCs): high cytotoxic effect | cell death, colon CSC cell line [6]: ~45% | cell death, breast CSC cell line [3]: 25-35%

CCCCCCCCCCCC(=O)NCc1ccc(O)c(O)c1 [JC048]
cytotoxic effect on CSCs (summary) (CSCs): high cytotoxic effect | cell death, colon CSC cell line [6]: ~45% | cell death, breast CSC cell line [3]: ~55%

CCCCCCCCCCC(=O)NCc1ccc(O)c(O)c1 [JC049]
cytotoxic effect on CSCs (summary) (CSCs): high cytotoxic effect | cell death, colon CSC cell line [6]: 15-33% | cell death, breast CSC cell line [3]: 25-35%

CCCCCCCCCCCCCC(=O)NCc1ccc(O)c(O)c1 [JC050]
cell death, breast CSC cell line [3]: 25-35%

COc1cc(CNC(=O)CCCC/C=C/C(C)C)ccc1O [capsaicin]
concentration for in vitro cytotoxic effect [8]: 100 µM

Reference: patent US8703822B2, “Method for removing undifferentiated and dedifferentiated stem cell” (Nanyang Polytechnic, priority 2009, dated 2014)
